Measured values from ChEMBL document CHEMBL1135683, “2002 Alfred Burger Award Address in Medicinal Chemistry. Natural products and design: interrelated approaches in drug discovery” (J Med Chem, 2002).
Each block holds one compound with its values, some of them ahead of it. Where a SMILES comes first, the peptide text is derived from it. The star is where a group is joined. Octanoyl = CCCCCCCC(=O)*

How the values were obtained:
[1] = biological target: T1, Angiotensin-converting enzyme (Homo sapiens, UniProt P12821); experiment: Inhibition of Angiotensin I converting enzyme (ACE) in Bothrops jararaca venom
T1 sequence (P12821 whole entry): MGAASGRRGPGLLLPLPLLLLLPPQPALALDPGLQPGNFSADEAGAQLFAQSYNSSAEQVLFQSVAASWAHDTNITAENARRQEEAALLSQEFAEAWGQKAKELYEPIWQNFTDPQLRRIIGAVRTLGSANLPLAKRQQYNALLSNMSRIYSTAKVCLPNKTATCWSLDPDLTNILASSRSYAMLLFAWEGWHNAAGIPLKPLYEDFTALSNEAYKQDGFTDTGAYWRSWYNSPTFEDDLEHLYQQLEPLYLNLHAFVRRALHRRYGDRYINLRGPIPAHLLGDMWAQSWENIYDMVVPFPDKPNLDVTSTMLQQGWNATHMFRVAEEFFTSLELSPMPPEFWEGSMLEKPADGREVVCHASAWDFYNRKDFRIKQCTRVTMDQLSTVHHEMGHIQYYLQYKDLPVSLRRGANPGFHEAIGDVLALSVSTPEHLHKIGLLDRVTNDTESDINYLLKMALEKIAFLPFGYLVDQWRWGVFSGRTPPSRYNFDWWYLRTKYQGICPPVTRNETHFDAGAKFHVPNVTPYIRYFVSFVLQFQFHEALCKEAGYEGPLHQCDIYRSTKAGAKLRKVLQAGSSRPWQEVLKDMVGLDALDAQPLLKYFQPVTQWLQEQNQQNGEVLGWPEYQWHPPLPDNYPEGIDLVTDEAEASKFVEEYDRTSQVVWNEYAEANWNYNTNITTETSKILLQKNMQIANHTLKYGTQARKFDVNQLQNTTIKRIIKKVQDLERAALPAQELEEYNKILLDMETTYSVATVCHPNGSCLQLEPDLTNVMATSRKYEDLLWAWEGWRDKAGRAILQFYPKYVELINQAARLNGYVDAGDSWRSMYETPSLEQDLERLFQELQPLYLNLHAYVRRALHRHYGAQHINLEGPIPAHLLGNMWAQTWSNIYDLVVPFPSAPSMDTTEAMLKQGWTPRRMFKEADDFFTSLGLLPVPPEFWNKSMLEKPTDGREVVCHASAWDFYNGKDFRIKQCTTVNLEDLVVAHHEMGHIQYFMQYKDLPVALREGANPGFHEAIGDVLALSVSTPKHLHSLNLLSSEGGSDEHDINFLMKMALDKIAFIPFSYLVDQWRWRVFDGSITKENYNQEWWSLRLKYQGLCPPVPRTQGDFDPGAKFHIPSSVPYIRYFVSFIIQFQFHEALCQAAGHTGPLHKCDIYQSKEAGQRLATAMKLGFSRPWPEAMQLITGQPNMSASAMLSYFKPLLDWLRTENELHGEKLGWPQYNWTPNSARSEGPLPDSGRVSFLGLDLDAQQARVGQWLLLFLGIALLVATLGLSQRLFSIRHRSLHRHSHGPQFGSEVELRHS

[2] = biological target: T1, Angiotensin-converting enzyme; experiment: The compound was evaluated for the (%) inhibition of Angiotensin I converting enzyme in venom of Bothrops jararaca at the dose of 10e-4 M; format: tissue-based
[3] = The compound was evaluated for the inhibition of Glycolate oxidase
[4] = biological target: Somatostatin receptor type 1 (Homo sapiens, UniProt P30872); experiment: Binding affinity towards Somatostatin receptor type 1 (hsst1)
Sequence of Somatostatin receptor type 1 (P30872 whole entry): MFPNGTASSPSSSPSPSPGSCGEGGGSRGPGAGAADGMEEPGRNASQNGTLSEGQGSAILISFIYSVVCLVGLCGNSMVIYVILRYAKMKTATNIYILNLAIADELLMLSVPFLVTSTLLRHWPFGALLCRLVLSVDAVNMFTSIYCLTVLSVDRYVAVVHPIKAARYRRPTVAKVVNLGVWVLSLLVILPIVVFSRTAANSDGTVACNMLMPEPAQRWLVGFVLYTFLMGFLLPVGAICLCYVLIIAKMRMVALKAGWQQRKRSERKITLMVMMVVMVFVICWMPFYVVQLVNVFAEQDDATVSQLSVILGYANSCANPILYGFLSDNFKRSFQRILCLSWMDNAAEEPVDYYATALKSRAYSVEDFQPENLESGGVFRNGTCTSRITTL

[5] = biological target: Somatostatin receptor type 5 (Homo sapiens, UniProt P35346); experiment: Binding affinity towards Somatostatin receptor type 5 (hsst5)
Sequence of Somatostatin receptor type 5 (P35346 whole entry): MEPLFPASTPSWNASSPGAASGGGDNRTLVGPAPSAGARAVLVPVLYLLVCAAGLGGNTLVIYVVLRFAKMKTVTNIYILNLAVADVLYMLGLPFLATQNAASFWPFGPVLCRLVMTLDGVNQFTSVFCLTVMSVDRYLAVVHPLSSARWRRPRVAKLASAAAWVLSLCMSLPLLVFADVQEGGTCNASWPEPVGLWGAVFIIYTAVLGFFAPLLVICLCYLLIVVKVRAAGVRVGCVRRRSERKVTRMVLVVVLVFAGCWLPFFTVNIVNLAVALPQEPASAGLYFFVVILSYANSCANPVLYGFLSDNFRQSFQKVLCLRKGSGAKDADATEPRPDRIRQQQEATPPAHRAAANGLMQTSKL

[6] = biological target: Somatostatin receptor type 3 (Homo sapiens, UniProt P32745); experiment: Binding affinity towards Somatostatin receptor type 3 (hsst3)
Sequence of Somatostatin receptor type 3 (P32745 whole entry): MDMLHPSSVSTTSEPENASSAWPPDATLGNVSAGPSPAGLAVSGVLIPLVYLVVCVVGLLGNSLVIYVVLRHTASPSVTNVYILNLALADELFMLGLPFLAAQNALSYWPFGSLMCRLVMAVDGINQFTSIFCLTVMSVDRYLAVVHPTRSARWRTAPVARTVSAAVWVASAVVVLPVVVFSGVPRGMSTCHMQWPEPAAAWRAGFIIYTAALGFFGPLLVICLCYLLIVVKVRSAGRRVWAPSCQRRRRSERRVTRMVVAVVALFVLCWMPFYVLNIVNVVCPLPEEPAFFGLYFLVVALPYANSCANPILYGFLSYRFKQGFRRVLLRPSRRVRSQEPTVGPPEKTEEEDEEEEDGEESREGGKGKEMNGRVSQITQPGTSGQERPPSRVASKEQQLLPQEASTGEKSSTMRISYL

[7] = biological target: Somatostatin receptor type 4 (Homo sapiens, UniProt P31391); experiment: Binding affinity towards Somatostatin receptor type 4 (hsst4)
Sequence of Somatostatin receptor type 4 (P31391 whole entry): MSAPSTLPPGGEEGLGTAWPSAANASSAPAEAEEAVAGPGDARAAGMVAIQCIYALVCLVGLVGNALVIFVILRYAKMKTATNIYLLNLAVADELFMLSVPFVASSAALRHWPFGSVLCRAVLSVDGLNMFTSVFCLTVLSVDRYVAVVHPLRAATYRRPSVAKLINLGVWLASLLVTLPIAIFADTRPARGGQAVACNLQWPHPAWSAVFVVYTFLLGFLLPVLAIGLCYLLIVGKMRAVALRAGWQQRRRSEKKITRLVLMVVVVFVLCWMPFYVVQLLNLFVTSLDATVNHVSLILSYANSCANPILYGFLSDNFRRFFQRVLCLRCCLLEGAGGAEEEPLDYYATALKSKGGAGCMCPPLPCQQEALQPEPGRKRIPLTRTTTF

[8] = biological target: Growth hormone secretagogue receptor type 1 (Homo sapiens, UniProt Q92847); experiment: Ability to displace [125I]ghrelin from cloned human Growth hormone secretagogue receptor type I (GSH1a) expressed in COS-7 cells; format: cell-based
Sequence of Growth hormone secretagogue receptor type 1 (Q92847 whole entry): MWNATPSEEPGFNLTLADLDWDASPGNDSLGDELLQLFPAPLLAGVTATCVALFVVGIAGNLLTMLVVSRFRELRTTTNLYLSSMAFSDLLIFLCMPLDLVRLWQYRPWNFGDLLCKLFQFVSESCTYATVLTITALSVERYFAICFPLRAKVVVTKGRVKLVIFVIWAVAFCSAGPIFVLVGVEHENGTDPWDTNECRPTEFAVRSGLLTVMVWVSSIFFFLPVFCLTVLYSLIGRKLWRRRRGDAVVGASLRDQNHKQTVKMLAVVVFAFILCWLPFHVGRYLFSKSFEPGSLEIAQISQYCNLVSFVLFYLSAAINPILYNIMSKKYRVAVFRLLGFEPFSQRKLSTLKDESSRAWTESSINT

[9] = biological target: T1, Angiotensin-converting enzyme; experiment: Inhibitory activity against Angiotensin I converting enzyme (ACE) in venom of Bothrops jararaca; format: tissue-based

Compound: CC(CCC(=O)N1CCC[C@H]1C(=O)O)C(=O)O (stereo partly specified)
IC50 [1]: 260 µM

Compound: H-EKWAP-OH
IC50 [1]: 0.06 µM

Compound: O=C(O)CCC(=O)N1CCC[C@H]1C(=O)O
inhibition [2]: 43%

IC50 [3]: 0.06 µM
Compound: O=C(O)/C(O)=C\C(=O)c1ccc(-c2ccc(Br)cc2)cc1

Ki [4]: 2.39 µM
Ki [5]: 0.163 µM
Ki [6]: 0.031 µM
Ki [7]: 0.081 µM
Compound: C[C@@H](c1c[nH]c2ccccc12)[C@@H](NC(=O)N1CCC(n2c(=O)[nH]c3ccccc32)CC1)C(=O)N[C@@H](CCCCN)C(=O)OC(C)(C)C

IC50 [8]: 0.00071 µM
Compound: CCCCCCCC(=O)OC[C@H](NC(=O)[C@H](CO)NC(=O)CN)C(=O)N[C@@H](Cc1ccccc1)C(=O)N[C@@H](CC(C)C)C(=O)N[C@@H](CO)C(=O)N1CCC[C@H]1C(=O)N[C@@H](CCC(=O)O)C(=O)N[C@@H](Cc1c[nH]cn1)C(=O)N[C@@H](CCC(N)=O)C(=O)N[C@@H](CCCN=C(N)N)C(=O)N[C@H](C(=O)N[C@@H](CCC(N)=O)C(=O)N[C@@H](CCC(N)=O)C(=O)N[C@@H](CCCN=C(N)N)C(=O)N[C@@H](CCCCN)C(=O)N[C@@H](CCC(=O)O)C(=O)N[C@@H](CO)C(=O)N[C@@H](CCCCN)C(=O)N[C@@H](CCCCN)C(=O)N1CCC[C@H]1C(=O)N1CCC[C@H]1C(=O)N1CCC[C@H]1C(=O)N[C@@H](C)C(=O)N[C@@H](CCCCN)C(=O)N[C@@H](CC(C)C)C(=O)N[C@@H](CCC(N)=O)C(=O)N1CCC[C@H]1C(=O)N[C@@H](CCCN=C(N)N)C(=O)O)C(C)C (H-GSS(Octanoyl)FLSPEHQRVQQRKESKKPPPAKLQPR-OH)

Compound: O=C(O)CCCC(=O)N1CCC[C@H]1C(=O)O
IC50 [1]: 70 µM

Compound: O=CC(Cc1ccccc1)NC(CCc1ccccc1)C(=O)O (stereo unspecified)
Ki [9]: 50 µM
